Measured values taken from patent US7041681B2, “Compounds as opioid receptor modulators” (Janssen Pharmaceutica N.V., priority 2002, dated 2006).
pKi: −log10 of the molar value.

What was measured:
mu opioid receptor = biological target: T1, mu opioid receptor (Rattus norvegicus, UniProt P33535); test: Rat Brain mu Opioid Receptor Binding Assay; details: rat forebrain membranes, ~0.8 nM [3H]DAMGO, 25° C., 2.5 h; read-out: μ-opioid binding (Ki)
T1 construct: from tissue; host or cells: rat forebrain homogenate (Wistar rat)
T1 sequence (P33535 whole entry): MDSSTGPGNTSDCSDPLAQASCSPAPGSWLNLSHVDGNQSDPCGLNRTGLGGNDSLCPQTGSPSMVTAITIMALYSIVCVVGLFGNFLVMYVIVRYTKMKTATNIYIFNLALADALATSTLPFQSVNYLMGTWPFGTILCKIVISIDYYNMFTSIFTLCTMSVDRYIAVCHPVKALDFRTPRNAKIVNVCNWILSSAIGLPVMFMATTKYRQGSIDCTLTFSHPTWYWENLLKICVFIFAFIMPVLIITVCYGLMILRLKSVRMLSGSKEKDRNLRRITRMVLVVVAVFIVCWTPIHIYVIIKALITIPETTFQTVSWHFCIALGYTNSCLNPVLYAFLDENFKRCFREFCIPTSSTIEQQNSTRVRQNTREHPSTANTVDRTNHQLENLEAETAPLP
Experimental: (§1) Male, Wistar rats (150–250 g, VAF, Charles River, Kingston, N.Y.) are killed by cervical dislocation, and their brains removed and placed immediately in ice cold Tris HCl buffer (50 mM, pH 7.4). The forebrains are separated from the remainder of the brain by a coronal transection, beginning dorsally at the colliculi and passing ventrally through the midbrain-pontine junction. After dissection, the forebrains are homogenized in Tris buffer in a Teflon®-glass homogenizer. The homogenize is diluted to a concentration of 1 g of forebrain tissue per 80 mL Tris and centrifuged at 39,000×g for 10 min. The pellet is resuspended in the same volume of Tris buffer containing 5 mM MgCl2 with several brief pulses from a Polytron homogenizer. This particulate preparation is used for the mu-opioid binding assays. Following incubation with the mu selective peptide ligand ˜0.8 nM [^3H]DAMGO at 25° C. for 2.5 h in a 96-well plate with total 1 ml, the plate contents are filtered through Wallac filtermat B sheets on a Tomtec 96-well harvester. The filters are rinsed three times with 2 mL of 10 mM HEPES (pH7.4), and dried in a microwave oven 1:45 min twice. To each sample area 2×40 μl of Betaplate Scint scintillation fluid (LKB) is added and analyzed on a LKB (Wallac) 1205 BetaPlate liquid scintillation counter.
(§2) The data are used to calculate either the % inhibition compared to control binding (when only a single concentration of test compound is evaluated) or a Ki value (when a range of concentrations is tested). % inhibition is calculated as: [(total dpm-test compound dpm dpm)/(total dpm-nonspecific dpm)]*100. Kd and Ki values were calculated using GraphPad PRISM data analysis program.

delta opioid receptor = biological target: T2, delta opioid receptor (Rattus norvegicus, UniProt P33533); test: Rat Brain Delta Opioid Receptor Binding Assay; details: rat forebrain membranes, ~4 nM [3H]DPDPE, 25° C., 2.5 h; read-out: δ-opioid binding (Ki)
T2 construct: from tissue; host or cells: rat forebrain homogenate (Wistar rat)
T2 sequence (P33533 whole entry): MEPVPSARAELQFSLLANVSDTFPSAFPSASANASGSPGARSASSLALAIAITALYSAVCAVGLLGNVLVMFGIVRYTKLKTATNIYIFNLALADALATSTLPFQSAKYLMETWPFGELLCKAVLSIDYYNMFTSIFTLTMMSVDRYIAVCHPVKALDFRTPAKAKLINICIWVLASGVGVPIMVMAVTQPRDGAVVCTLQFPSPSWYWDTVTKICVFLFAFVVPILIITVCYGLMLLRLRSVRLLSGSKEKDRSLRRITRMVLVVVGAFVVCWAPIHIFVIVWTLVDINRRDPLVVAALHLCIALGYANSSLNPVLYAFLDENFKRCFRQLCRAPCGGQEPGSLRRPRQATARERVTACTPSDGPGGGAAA
Experimental: as §1, with “delta opioid” for “mu-opioid”, “delta” for “mu”, “˜4” for “˜0.8”, “[^3H]DPDPE” for “[^3H]DAMGO”, “total volume of” for “total”
as §2

## CN[C@@H](Cc1c(C)cc(O)cc1C)C(=O)N1Cc2ccccc2C[C@H]1c1nc(-c2ccccc2)c[nH]1 [Cmpd 127]
Mu opioid receptor
  pKi: 8.15
Delta opioid receptor
  pKi: 9.40

## CN[C@@H](Cc1ccc(OC(=O)C(C)(C)C)cc1)C(=O)N1Cc2ccccc2C[C@H]1c1nc(-c2ccccc2)c[nH]1 [Cmpd 128]
Mu opioid receptor
  pKi: 6.67
Delta opioid receptor
  pKi: 8.28

## N[C@@H](Cc1ccc(O)c([N+](=O)[O-])c1)C(=O)N1Cc2ccccc2C[C@H]1c1nc(-c2ccccc2)c[nH]1 [Cmpd 129]
Mu opioid receptor
  pKi: 4.59
Delta opioid receptor
  pKi: 4.30

## Cc1cc(O)cc(C)c1CC(N)C(=O)N1Cc2ccccc2CC1c1nc(-c2ccccc2)c[nH]1 (stereo not shown) [Cmpd 131]
Mu opioid receptor
  pKi: 9.52
Delta opioid receptor
  pKi: 10.05

## Cc1cc(O)cc(C)c1C[C@H](N)C(=O)N1Cc2ccccc2C[C@H]1c1nc(-c2ccccc2)c(Br)[nH]1 [Cmpd 132]
Mu opioid receptor
  pKi: 9.77
Delta opioid receptor
  pKi: 10.00

## Cc1cc(O)cc(C)c1C[C@H](N)C(=O)N1Cc2ccccc2C[C@H]1c1nc(-c2ccccc2)c(Cl)[nH]1 [Cmpd 133]
Mu opioid receptor
  pKi: 9.74
Delta opioid receptor
  pKi: 9.92

## O=C([C@H](Cc1ccc(O)cc1)NCc1ccccc1)N1Cc2ccccc2C[C@@H]1c1nc(-c2ccccc2)c[nH]1 [Cmpd 134]
Mu opioid receptor
  pKi: 6.48
Delta opioid receptor
  pKi: 5.00

## O=C(C(Cc1ccc(O)cc1)NCc1ccccc1)N1Cc2ccccc2CC1c1nc(-c2ccccc2)c[nH]1 (stereo not shown) [Cmpd 135]
Mu opioid receptor
  pKi: 5.00
Delta opioid receptor
  pKi: 6.73

## CCN[C@@H](Cc1ccc(O)cc1)C(=O)N1Cc2ccccc2C[C@@H]1c1nc(-c2ccccc2)c[nH]1 [Cmpd 136]
Mu opioid receptor
  pKi: 6.64
Delta opioid receptor
  pKi: 6.94

## CCN[C@@H](Cc1ccc(O)cc1)C(=O)N1Cc2ccccc2C[C@H]1c1nc(-c2ccccc2)c[nH]1 [Cmpd 137]
Mu opioid receptor
  pKi: 6.43
Delta opioid receptor
  pKi: 8.41

## CC(C)NC(Cc1ccc(O)cc1)C(=O)N1Cc2ccccc2CC1c1nc(-c2ccccc2)c[nH]1 (stereo not shown) [Cmpd 138]
Mu opioid receptor
  pKi: 5.00
Delta opioid receptor
  pKi: 6.40

## CC(=O)Nc1ccc(C[C@H](N)C(=O)N2Cc3ccccc3C[C@H]2c2nc(-c3ccccc3)c(C)[nH]2)cc1 [Cmpd 141]
Mu opioid receptor
  pKi: 6.68
Delta opioid receptor
  pKi: 7.47

## Cc1[nH]c([C@@H]2Cc3ccccc3CN2C(=O)[C@@H](N)Cc2ccc(N)cc2)nc1-c1ccccc1 [Cmpd 142]
Mu opioid receptor
  pKi: 6.07
Delta opioid receptor
  pKi: 7.03

## Cc1[nH]c([C@@H]2Cc3ccccc3CN2C(=O)[C@@H](N)Cc2ccc(F)cc2)nc1-c1ccccc1 [Cmpd 143]
Mu opioid receptor
  pKi: 4.89
Delta opioid receptor
  pKi: 6.16

## N[C@@H](Cc1ccc(Cl)cc1)C(=O)N1Cc2ccccc2C[C@H]1c1nc(-c2ccccc2)c[nH]1 [Cmpd 144]
Mu opioid receptor
  pKi: 5.28
Delta opioid receptor
  pKi: 5.95

## CNC(Cc1ccc(O)cc1)C(=O)N1Cc2ccccc2CC1c1nc(-c2ccccc2)c[nH]1 (stereo not shown) [Cmpd 145]
Mu opioid receptor
  pKi: 7.23
Delta opioid receptor
  pKi: 8.93

## CNC(Cc1c(C)cc(OC)cc1C)C(=O)N1Cc2ccccc2CC1c1nc(-c2ccccc2)c[nH]1 (stereo not shown) [Cmpd 146]
Mu opioid receptor
  pKi: 6.09
Delta opioid receptor
  pKi: 6.18

## COc1cc(C)c(CC(N)C(=O)N2Cc3ccccc3CC2c2nc(-c3ccccc3)c[nH]2)c(C)c1 (stereo not shown) [Cmpd 147]
Mu opioid receptor
  pKi: 6.82
Delta opioid receptor
  pKi: 7.37

## Cc1cc(O)cc(C)c1C[C@H](N)C(=O)N1Cc2ccccc2C[C@H]1c1nc(-c2ccccc2)c(C)[nH]1 [Cmpd 149]
Mu opioid receptor
  pKi: 8.52
Delta opioid receptor
  pKi: 9.10

## COc1ccc(CC(N)C(=O)N2Cc3ccccc3CC2c2nc(-c3ccccc3)c(C)[nH]2)cc1 (stereo not shown) [Cmpd 154]
Mu opioid receptor
  pKi: 5.00
Delta opioid receptor
  pKi: 5.00

## CNC(Cc1ccc(O)cc1)C(=O)N1Cc2ccccc2CC1c1nc(-c2ccccc2)c(C)[nH]1 (stereo not shown) [Cmpd 155]
Mu opioid receptor
  pKi: 7.63
Delta opioid receptor
  pKi: 9.36

## COc1ccc(C[C@H](N)C(=O)N2Cc3ccccc3C[C@H]2c2nc(-c3ccccc3)c(C)[nH]2)cc1 [Cmpd 156]
Mu opioid receptor
  pKi: 6.75
Delta opioid receptor
  pKi: 7.55

## CN[C@@H](Cc1ccc(O)cc1)C(=O)N1Cc2ccccc2C[C@H]1c1nc(-c2ccccc2)c(C)[nH]1 [Cmpd 157]
Mu opioid receptor
  pKi: 7.52
Delta opioid receptor
  pKi: 9.24

## Cc1cc(O)cc(C)c1C[C@H](N)C(=O)N1CCCC[C@@H]1c1nc(-c2ccccc2)c[nH]1 [Cmpd 158]
Mu opioid receptor
  pKi: 9.82
Delta opioid receptor
  pKi: 8.27

## N#Cc1ccc(CC(N)C(=O)N2Cc3ccccc3CC2c2nc(-c3ccccc3)c[nH]2)cc1 (stereo not shown) [Cmpd 160]
Mu opioid receptor
  pKi: 5.87
Delta opioid receptor
  pKi: 6.12

## N[C@@H](Cc1cccc(O)c1)C(=O)N1Cc2ccccc2C[C@H]1c1nc(-c2ccccc2)c[nH]1 [Cmpd 161]
Mu opioid receptor
  pKi: 6.32
Delta opioid receptor
  pKi: 6.88
